Consider 52 compounds from ChEMBL document CHEMBL2163249, “Exploration of natural compounds as sources of new bifunctional scaffolds targeting cholinesterases and beta amyloid aggregation: the case of chelerythrine” (Bioorg Med Chem, 2012).

In assay [1] the target is Acetylcholinesterase (Electrophorus electricus) (UniProt O42275). Conditions: at 2 mg/mL.
Description: Inhibition of electric eel AChE at 2 mg/ml by Ellman's method
Assay [2] has as its target Cholinesterase (Equus caballus) (UniProt P81908). Particulars: at 2 mg/mL.
Description: Inhibition of horse BChE at 2 mg/ml by Ellman's method

By inhibition is commonly meant the change of the read-out against control, counted positive when it falls.

Structures are written as SMILES.

Sequence of Acetylcholinesterase (Electrophorus electricus) (O42275 24-633 limits assumed): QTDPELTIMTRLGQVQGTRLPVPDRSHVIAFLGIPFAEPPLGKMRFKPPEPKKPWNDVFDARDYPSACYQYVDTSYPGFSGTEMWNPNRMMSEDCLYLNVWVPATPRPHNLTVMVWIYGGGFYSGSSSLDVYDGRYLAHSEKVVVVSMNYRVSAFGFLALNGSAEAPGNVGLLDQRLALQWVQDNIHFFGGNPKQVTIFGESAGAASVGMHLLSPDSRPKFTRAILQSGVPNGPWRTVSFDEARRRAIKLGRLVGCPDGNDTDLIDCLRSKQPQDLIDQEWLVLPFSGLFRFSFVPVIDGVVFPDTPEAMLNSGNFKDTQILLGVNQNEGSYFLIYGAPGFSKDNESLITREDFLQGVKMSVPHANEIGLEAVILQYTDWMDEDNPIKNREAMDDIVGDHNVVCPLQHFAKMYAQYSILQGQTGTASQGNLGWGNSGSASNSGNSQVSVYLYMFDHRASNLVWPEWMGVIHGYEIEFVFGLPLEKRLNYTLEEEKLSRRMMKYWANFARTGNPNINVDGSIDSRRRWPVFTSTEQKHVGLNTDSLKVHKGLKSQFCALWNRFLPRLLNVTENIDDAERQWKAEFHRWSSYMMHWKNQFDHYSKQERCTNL
Sequence of Cholinesterase (Equus caballus) (P81908 whole entry): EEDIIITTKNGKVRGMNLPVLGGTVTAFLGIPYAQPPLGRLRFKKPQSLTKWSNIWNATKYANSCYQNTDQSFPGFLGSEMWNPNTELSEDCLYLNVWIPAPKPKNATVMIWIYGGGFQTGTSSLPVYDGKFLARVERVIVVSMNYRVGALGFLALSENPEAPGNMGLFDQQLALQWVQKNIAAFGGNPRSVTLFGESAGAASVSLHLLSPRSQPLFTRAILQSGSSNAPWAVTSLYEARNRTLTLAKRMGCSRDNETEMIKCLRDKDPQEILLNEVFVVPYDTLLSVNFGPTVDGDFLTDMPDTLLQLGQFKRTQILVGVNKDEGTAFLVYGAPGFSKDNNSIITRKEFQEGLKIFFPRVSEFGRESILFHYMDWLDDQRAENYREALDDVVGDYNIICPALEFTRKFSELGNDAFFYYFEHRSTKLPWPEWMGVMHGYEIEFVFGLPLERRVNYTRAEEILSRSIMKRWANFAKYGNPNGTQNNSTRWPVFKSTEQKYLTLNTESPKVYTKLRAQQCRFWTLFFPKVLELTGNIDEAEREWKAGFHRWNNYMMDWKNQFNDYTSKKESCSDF

Turning to `CO[C@H]1C[C@@H]2CC[C@@H](C)[C@@](O)(O2)C(=O)C(=O)N2CCCC[C@H]2C(=O)O[C@H]([C@H](C)C[C@@H]2CC[C@@H](O)[C@H](OC)C2)CC(=O)[C@H](C)/C=C(\C)[C@@H](O)[C@@H](OC)C(=O)[C@H](C)C[C@H](C)/C=C/C=C/C=C/1C`, the inhibition in assay [1] is 18.7%; in assay [2], 4.03%.
As to `COc1ccc(C[C@H]2c3cc(OC)c(OC)cc3CC[N+]2(C)C)cc1OC`, the inhibition in assay [1] was found to be 28.5%; in assay [2] it was 2.85%.
In the case of `CC1=CC(=O)C2=C(C)C[C@H](O)[C@@H]3[C@H](OC(=O)[C@H]3C)[C@@H]12`, the figures for the inhibition in assay [1] and in assay [2] were 29.5% and 2.68%, respectively.
For the compound `COc1cc2c(cc1OC)[C@@]13CC[N+]4([O-])CC5=CCO[C@H]6CC(=O)N2[C@H]1[C@H]6[C@H]5C[C@@H]34` (some centres undefined), the inhibition in assay [1] was 12.8%; in assay [2], -6.05%.
For `C[C@@H]1CC[C@]2(NC1)O[C@H]1C[C@H]3[C@@H]4CC=C5C[C@@H](O)CC[C@]5(C)[C@H]4CC[C@]3(C)[C@H]1[C@@H]2C`, in that order: 1.63% and 53.7%.
On to `COc1ccc2ccc(=O)oc2c1CC=C(C)C`, for which the inhibition was 3.31% in assay [1] and -0.19% in assay [2].
For `O=C(/C=C/c1ccc(O)c(O)c1)OCCc1ccccc1`, the inhibition in assay [1] is -8.88%; in assay [2], 17.7%.
On to `CC1=C(/C=C/C(C)=C/C=C/C(C)=C\C(=O)O)C(C)(C)CCC1`, for which the inhibition stood at 11.5% in assay [1] and 0.91% in assay [2].
`CCCCCCCCCCC[C@@H](C[C@@H]1OC(=O)[C@H]1CCCCCC)OC(=O)[C@H](CC(C)C)NC=O`: the results for the inhibition in assay [1] and in assay [2] were -6.52% and 7.43%, respectively.
`COc1ccc(-c2coc3cc(O)ccc3c2=O)cc1`: the inhibition in assay [1] worked out at 1.62%; in assay [2], 0.57%.
The corresponding values for `CC[C@]1(O)C[C@@H]2CN(CCc3c([nH]c4ccccc34)[C@@](C(=O)OC)(c3cc4c(cc3OC)N(C)[C@H]3[C@@](O)(C(=O)OC)[C@H](OC(C)=O)[C@]5(CC)C=CCN6CC[C@]43[C@@H]65)C2)C1` are 15.4% and 0.36%.
As to `C/C=C(/C)C(=O)O[C@H]1C[C@@]2(C)O[C@H]2[C@@H](O)[C@@]2(C)CC[C@@](O)(C(C)C)[C@H]12`, the inhibition in assay [1] was 17.2%; in assay [2] it was -1.91%.
Regarding `O=c1cc(-c2ccc(O)cc2)oc2c([C@@H]3O[C@H](CO)[C@@H](O)[C@H](O)[C@H]3O)c(O)cc(O)c12`, the inhibition in assay [1] came out at 3.3%; in assay [2], 2.26%.
As for `CCCCCCCCCCCCCC(=O)O[C@@H]1[C@@H](C)[C@@]2(O)[C@@H](C=C(CO)C[C@@]3(O)C(=O)C(C)=C[C@@H]23)[C@H]2C(C)(C)[C@]12OC(C)=O`, the results for the inhibition in assay [1] and in assay [2] were 12.9% and -0.91%, respectively.
As for `CC(C)=CCC/C(C)=C/COc1ccc2ccc(=O)oc2c1`, the values for the inhibition in assay [1] and in assay [2] were -3.79% and 1.5%, respectively.
With `C[C@@H]1O[C@H](C[N+](C)(C)C)C[C@H]1O`, the inhibition was -6.43% in assay [1] and -6.38% in assay [2].
`CC1(C)CCC[C@](C)([C@H]2CC[C@]3(C)[C@@H]2[C@H](O)C[C@@H]2[C@@]4(C)CC[C@H](O)C(C)(C)[C@@H]4CC[C@]23C)O1`: the inhibition in assay [1] came to 7.82%; in assay [2] it was 12.1%.
For the compound `CCCCC1OC(=O)C2=CCCCC21` (centres undefined), the inhibition in assay [1] is -0.57%; in assay [2] it was 4.12%.
For `C[N+]1(C)CCC[C@H]1C(=O)[O-]`, in that order: -9.74% and -3.98%.
As to `C[C@H]1C(=O)CC[C@@H]2[C@]1(C)CC[C@H]1[C@@]2(C)CC[C@@]2(C)[C@@H]3CC(C)(C)CC[C@]3(C)CC[C@]12C`, the inhibition in assay [1] is -3.69%; in assay [2], -0.57%.
For `COc1ccc(CC2NCCc3cc(OC)c(OC)cc32)cc1OC` (centres undefined), in that order: 4.06% and 7.36%.
Take `C[C@@H]1O[C@@H](OC[C@H]2O[C@@H](Oc3cc(O)c4c(c3)O[C@H](c3ccc(O)c(O)c3)CC4=O)[C@H](O)[C@@H](O)[C@@H]2O)[C@H](O)[C@H](O)[C@H]1O`: the inhibition in assay [1] worked out at 21.5%; in assay [2], 1.98%.
As to `COc1ccc(/C=C/c2cc(O)cc(O[C@@H]3O[C@H](CO)[C@@H](O)[C@H](O)[C@H]3O)c2)cc1O`, the inhibition in assay [1] was -3.62%; in assay [2] it was -4.38%.
As to `COC(=O)[C@H]1[C@H]2C[C@H]3c4[nH]c5cc(OC)ccc5c4CCN3C[C@H]2C[C@@H](OC(=O)c2cc(OC)c(OC)c(OC)c2)[C@@H]1OC`, the results for the inhibition in assay [1] and in assay [2] were -2.45% and -8.07%, respectively.
On to `COc1ccc(-c2cc(=O)c3c(O)cc(O)cc3o2)cc1O`, for which the inhibition in assay [1] was -8.89%; in assay [2], -6.13%.
In the case of `O=c1cccc2n1C[C@@H]1CNC[C@H]2C1`, the inhibition in assay [1] was 2.17%; in assay [2], -3.85%.
With `COC1=CC(=O)O[C@@H](/C=C/c2ccc3c(c2)OCO3)C1`, the figures for the inhibition in assay [1] and in assay [2] were -4.34% and 0.15%, respectively.
For `C/C=C1\CN2CC[C@]34C(=C(CC=O)[C@H]1C[C@H]23)Nc1ccccc14`, in that order: 21.1% and 12%.
As for `C=C(C)[C@@H]1CC[C@]2(C(=O)O)CC[C@]3(C)[C@H](CC[C@@H]4[C@@]5(C)CC[C@H](O)C(C)(C)[C@@H]5CC[C@]43C)[C@@H]12`, the inhibition was -5.33% in assay [1] and 2.88% in assay [2].
Turning to `C=C[C@@](C)(/C=C/c1ccc(O)cc1)CCC=C(C)C`, the values for the inhibition in assay [1] and in assay [2] were -7.92% and 13.4%, respectively.
For `CCCCC[C@H](O)/C=C/C1=C(CCCCCCC(=O)O)C(=O)CC1`, the inhibition in assay [1] is 15.6%; in assay [2], -1.44%.
For `CC[C@]1(O)C[C@H]2CN(CCc3c([nH]c4ccccc34)[C@@](C(=O)OC)(c3cc4c(cc3OC)N(C=O)[C@H]3[C@@](O)(C(=O)OC)[C@H](OC(C)=O)[C@]5(CC)C=CCN6CC[C@]43[C@@H]65)C2)C1`, in that order: 10.9% and 2.81%.
Consider `COc1ccc2cc1Oc1ccc(cc1)C[C@H]1c3c(cc4c(c3Oc3cc5c(cc3OC)CCN(C)[C@@H]5C2)OCO4)CCN1C`, for which the inhibition in assay [1] is 8.59%; in assay [2], 40.6%.
`CN(C)c1ccc(O)c2c1C[C@H]1C[C@H]3[C@H](N(C)C)C(O)=C(C(N)=O)C(=O)[C@@]3(O)C(O)=C1C2=O`: the inhibition in assay [1] is -0.24%; in assay [2], -8.62%.
`CCCCCCCCCCCCCC[C@@H](O)[C@@H](O)[C@H](CO)NC(C)=O`: the inhibition in assay [1] was found to be 0.15%; in assay [2] it was 3.97%.
`C/C=C(/C)C(=O)O[C@H]1C(C)=C2[C@H]([C@@H]1OC(=O)CCCCCCC)[C@@](C)(OC(C)=O)C[C@H](OC(=O)CCC)[C@@]1(O)[C@H]2OC(=O)[C@@]1(C)O`: the inhibition was 9.89% in assay [1] and 0.82% in assay [2].
For the compound `CC[C@]12CCCN3CCc4c(n(c5ccccc45)[C@@](O)(C(=O)OC)C1)[C@@H]32`, the inhibition in assay [1] came to 7.29%; in assay [2], 3.22%.
With `N[C@H]1CONC1=O`, the values for the inhibition in assay [1] and in assay [2] were 1.18% and -5.13%, respectively.
As for `C[C@@H]1CC[C@H]2[C@@H](C)C(=O)O[C@@H]3O[C@@]4(C)CC[C@@H]1[C@]32OO4`, the values for the inhibition in assay [1] and in assay [2] were 2.43% and 35.6%, respectively.
Take `COc1cc(CCC(C)=O)ccc1O`: the inhibition in assay [1] is -5.32%; in assay [2], 10.8%.
The corresponding values for `CC(C)[C@@]1(NC(=O)[C@@H]2C[C@@H]3c4cccc5[nH]cc(c45)C[C@H]3N(C)C2)O[C@@]2(O)[C@@H]3CCCN3C(=O)[C@H](Cc3ccccc3)N2C1=O` are -1.54% and 0.35%.
On to `C[C@H]1CCC[C@@H](O)CCCCCc2cc(O)cc(O)c2C(=O)O1`, for which the values for the inhibition in assay [1] and in assay [2] were -1.34% and -4.26%, respectively.
For `O=c1cc(-c2ccc(O)cc2)oc2c(O[C@@H]3O[C@H](CO)[C@@H](O)[C@H](O)[C@H]3O)c(O)c(O[C@@H]3O[C@H](CO)[C@@H](O)[C@H](O)[C@H]3O)c(O)c12`, in that order: 22.2% and 1.92%.
Turning to `C[C@@H]1NCCc2cc(O)c(O)cc21`, the values for the inhibition in assay [1] and in assay [2] were 19.3% and -1.84%, respectively.
On to `O=C1C[C@@H](c2ccc(O)cc2)Oc2cc(O[C@@H]3O[C@H](CO)[C@@H](O)[C@H](O)[C@H]3O)cc(O)c21`, for which the inhibition is 18.7% in assay [1] and -1.72% in assay [2].
For `CO[C@H](C(=O)[C@@H](O)[C@@H](C)O)[C@@H]1Cc2cc3cc(O[C@H]4C[C@@H](O[C@H]5C[C@@H](O)[C@H](O)[C@@H](C)O5)[C@@H](O)[C@@H](C)O4)c(C)c(O)c3c(O)c2C(=O)[C@H]1O[C@H]1C[C@@H](O[C@H]2C[C@@H](O[C@H]3C[C@](C)(O)[C@H](O)[C@@H](C)O3)[C@H](O)[C@@H](C)O2)[C@H](O)[C@@H](O)O1`, the inhibition was -3.51% in assay [1] and 6.61% in assay [2].
For `COc1cc2c(cc1O)CCN[C@H]2C`, the inhibition in assay [1] was 10.8%; in assay [2], -4.77%.
`CCC1=C[C@@H]2CN(C1)Cc1c([nH]c3ccccc13)[C@@](C(=O)OC)(c1cc3c(cc1OC)N(C)[C@H]1[C@@](O)(C(=O)OC)[C@H](OC(C)=O)[C@]4(CC)C=CCN5CC[C@]31[C@@H]54)C2`: the inhibition is -0.32% in assay [1] and 12.2% in assay [2].
With `C=C1[C@@H](C)[C@H]2[C@H](Cc3ccccc3)NC(=O)[C@]23OC(=O)/C=C/[C@H](O)CCC[C@@H](C)C/C=C/[C@H]3[C@@H]1O`, the inhibition in assay [1] was -2.03%; in assay [2] it was 8.94%.
For the compound `CN(C)Cc1c[nH]c2ccccc12`, the inhibition was 15.3% in assay [1] and 10.6% in assay [2].
As for `C[C@@H]1C[C@H]2CC[C@H](O2)[C@H](C)C(=O)O[C@@H](C)C[C@@H]2CC[C@@H](O2)[C@@H](C)C(=O)O[C@H](C)C[C@H]2CC[C@@H](O2)[C@H](C)C(=O)O[C@@H](C)C[C@@H]2CC[C@@H](O2)[C@@H](C)C(=O)O1`, the figures for the inhibition in assay [1] and in assay [2] were 16.4% and -1.31%, respectively.
The corresponding values for `CCC[C@@H]1C[C@@H](C(=O)N[C@@H]([C@H]2O[C@H](SC)[C@H](O)[C@@H](O)[C@H]2O)[C@@H](C)O)N(C)C1` are -3.63% and -2.36%.
